In patent publication US8026218B2, “Bifunctional analgesic compounds for opioid receptor agonists and neurokinin-1 receptor antagonists” (The University of Arizona, priority 2006, dated 2011):
Like-named read-outs stand apart in the source and are kept apart here. Peptide text beside a SMILES is read from it.

Legend:
rat NK1 (rNK1) receptor = target: T1, rat NK1 (rNK1) receptor (Rattus norvegicus, UniProt P14600); experiment: Radioligand competition binding, [3H]substance P, rNK1/CHO membranes; conditions: for IC50: LogIC50, rNK1, [3H]Substance P, logarithm of IC50 (negative), CHO cell membranes
T1 construct: expressed in transfected cells; host or cells: CHO (rNK-1/CHO cell line from Dr. James Krause)
T1 sequence (P14600 whole entry): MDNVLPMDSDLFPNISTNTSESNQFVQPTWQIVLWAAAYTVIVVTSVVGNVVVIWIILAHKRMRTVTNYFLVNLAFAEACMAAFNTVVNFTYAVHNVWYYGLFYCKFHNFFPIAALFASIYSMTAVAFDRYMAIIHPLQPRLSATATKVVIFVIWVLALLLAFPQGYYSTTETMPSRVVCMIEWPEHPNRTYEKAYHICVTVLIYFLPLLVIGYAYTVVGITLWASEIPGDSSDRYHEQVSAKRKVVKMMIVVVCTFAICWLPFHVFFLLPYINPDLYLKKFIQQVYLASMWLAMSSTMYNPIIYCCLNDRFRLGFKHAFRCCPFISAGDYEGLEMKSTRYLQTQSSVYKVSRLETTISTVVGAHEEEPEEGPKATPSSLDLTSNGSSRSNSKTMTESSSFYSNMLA

δ opioid receptors (MVD) = target: T2, δ opioid receptors (MVD) (Mus musculus, UniProt P32300); experiment: Mouse isolated vas deferens (MVD) assay, opioid agonist
T2 construct: from tissue; host or cells: mouse (ICR) isolated vas deferens
T2 sequence (P32300 whole entry): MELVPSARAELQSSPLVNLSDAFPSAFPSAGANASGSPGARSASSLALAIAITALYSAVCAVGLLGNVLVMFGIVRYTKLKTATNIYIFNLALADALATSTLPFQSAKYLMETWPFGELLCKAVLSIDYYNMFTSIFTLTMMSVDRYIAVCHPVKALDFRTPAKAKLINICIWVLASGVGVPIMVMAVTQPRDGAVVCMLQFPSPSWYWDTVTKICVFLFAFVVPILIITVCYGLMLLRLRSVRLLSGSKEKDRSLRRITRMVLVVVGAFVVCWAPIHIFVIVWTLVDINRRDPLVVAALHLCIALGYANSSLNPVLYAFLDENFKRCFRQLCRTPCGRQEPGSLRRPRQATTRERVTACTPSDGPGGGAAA

[1] = In vitro stability in rat plasma at 37° C.; format: in vitro ADME; conditions: rat, rat plasma, read-out: half life (T1/2) in rat plasma (converted)
Method: The derivative compounds were tested for their metabolite stability. The compounds were incubated in rat plasma at 37° C., and aliquots were withdrawn at various time points and analyzed by HPLC to determine the concentration of remaining compound derivatives (FIGS. 15-16, 36, and 47-48).
In Vitro Stability of compound derivatives in Rat Plasm (Yamamoto, 2007, J. Am. Chem. Soc. submitted). Stock solution of compounds (50 mg/mL in DMSO) were diluted 1000-fold into rat plasma (Lot 24927, Pel-Freez Biologicals, Rogers, Ak.) to result in an incubation concentration of 50 μg/mL. All samples were incubated at 37° C. for 6 h, and 200 μL of aliquots were withdrawn at 1 h, 2 h, 4 h and 6 h. […] The samples were run in triplicate. Discussion.

[2] = target: T3, rat μ opioid receptors (rMOR) (Rattus norvegicus, UniProt P33535); experiment: Radioligand competition binding, [3H]DAMGO, rMOR membranes
T3 construct: expressed in transfected cells; host or cells: HN9.10 neuroblastoma cell line, pCDNA3, neomycin-selected clones
T3 sequence (P33535 whole entry): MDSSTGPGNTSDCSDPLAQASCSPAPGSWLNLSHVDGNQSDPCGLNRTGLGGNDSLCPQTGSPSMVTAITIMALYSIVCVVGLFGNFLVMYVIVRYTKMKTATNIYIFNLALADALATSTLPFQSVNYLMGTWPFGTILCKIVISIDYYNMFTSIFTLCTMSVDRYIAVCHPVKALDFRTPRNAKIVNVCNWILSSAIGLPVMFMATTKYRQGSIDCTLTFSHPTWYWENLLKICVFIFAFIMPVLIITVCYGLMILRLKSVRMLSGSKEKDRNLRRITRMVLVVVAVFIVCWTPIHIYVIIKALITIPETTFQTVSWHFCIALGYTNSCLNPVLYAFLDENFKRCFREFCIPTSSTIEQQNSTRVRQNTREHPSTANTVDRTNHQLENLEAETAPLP

[3] = target: T4, human δ opioid receptors (hDOR) (Homo sapiens, UniProt P41143); experiment: [35S]GTP-γ-S binding assay, hDOR; format: biochemical
T4 construct: expressed in transfected cells; host or cells: HN9.10 neuroblastoma cell line, pCDNA3, neomycin-selected clones
T4 sequence (P41143 whole entry): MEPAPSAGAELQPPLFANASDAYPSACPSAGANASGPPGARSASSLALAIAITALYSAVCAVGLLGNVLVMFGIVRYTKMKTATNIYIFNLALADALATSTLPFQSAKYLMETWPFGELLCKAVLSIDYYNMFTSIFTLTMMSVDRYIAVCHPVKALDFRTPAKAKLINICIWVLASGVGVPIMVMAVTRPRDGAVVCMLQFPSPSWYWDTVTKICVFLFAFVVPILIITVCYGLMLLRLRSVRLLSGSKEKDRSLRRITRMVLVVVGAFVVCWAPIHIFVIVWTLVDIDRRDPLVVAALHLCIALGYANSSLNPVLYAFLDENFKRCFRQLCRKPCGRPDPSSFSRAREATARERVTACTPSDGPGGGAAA

[4] = target: T4, human δ opioid receptors (hDOR); experiment: Radioligand competition binding, [3H]DPDPE, hDOR membranes
[5] = target: T3, rat μ opioid receptors (rMOR); experiment: biochemical; format: biochemical
μ opioid receptors (GPI) = experiment: Guinea pig isolated ileum (GPI) assay, opioid agonist;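 for all read-outs here: inhibition of electrically evoked contractions (0.1 Hz, 0.4 msec, supramaximal voltage) in organ baths at 37 °C, contraction height 3 min after each cumulative dose versus the 1 min before dosing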; conditions: for Opioid agonist GPI (μ), % inh.: Table 22, no antagonist activity observed at the tested concentration; for Opioid agonist GPI (μ), % inh. / GPI/LMMP opioid(mu) agonist, % at 1 uM: at 1 uM; for agonist effect in the functional assay using GPI: at the concentration of 1 μM, words
Method: Guinea Pig Isolated Ileum Assay. […] These tissues were tied to gold chains with suture silk and mounted between platinum wire electrodes in 20 mL organ baths at a tension of 1 g and bathed in oxygenated (95:5 O2:CO2) Kreb's bicarbonate buffer at 37° C. and stimulated electrically (0.1 Hz, 0.4 msec duration) at supramaximal voltage. Following an equilibration period, compounds were added cumulatively to the bath in volumes of 14-60 μL until maximum inhibition was reached. A baseline PL-017 was constructed to determine tissue integrity and allow calculation of antagonist activity before opioid analog testing began.
For opioid data analysis, percentage inhibition was calculated using the average tissue contraction height for 1 min preceding the addition of the agonist divided by the contraction height 3 min after exposure to the dose of agonist. […] IC50 and Emax estimates were determined by computerized nonlinear least-squares analysis (the pharmacological statistics package FlashCalc: Dr. Michael Ossipov, University of Arizona, Tucson, Ariz.). […] A50 values represent the mean of not less than 4 tissues. A50 and Emax estimates were determined by computerized nonlinear least-squares analysis (FlashCalc).

[6] = target: T5, Substance P receptors (guinea pig NK1) (Cavia porcellus, UniProt P30547); experiment: Guinea pig isolated ileum (GPI) assay with substance P stimulation in presence of 1 μM naloxone
T5 construct: from tissue; host or cells: guinea pig (Hartley) ileum LMMP, 1 μM naloxone present
T5 sequence (P30547 whole entry): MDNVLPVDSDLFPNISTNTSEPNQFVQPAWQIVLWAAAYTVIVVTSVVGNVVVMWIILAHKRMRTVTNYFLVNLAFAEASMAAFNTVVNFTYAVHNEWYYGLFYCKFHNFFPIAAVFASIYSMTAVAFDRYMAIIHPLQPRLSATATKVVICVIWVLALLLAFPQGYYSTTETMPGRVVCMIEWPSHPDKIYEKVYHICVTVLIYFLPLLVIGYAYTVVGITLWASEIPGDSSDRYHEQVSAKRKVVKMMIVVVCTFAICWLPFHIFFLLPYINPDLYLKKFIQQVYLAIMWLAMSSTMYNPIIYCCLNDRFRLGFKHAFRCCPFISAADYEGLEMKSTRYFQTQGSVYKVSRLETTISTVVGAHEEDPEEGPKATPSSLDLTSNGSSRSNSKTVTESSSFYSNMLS

[7] = target: T6, human NK1 receptor (hNK1) (Homo sapiens, UniProt P25103); experiment: Radioligand competition binding, [3H]-Substance P, hNK1
T6 construct: expressed in transfected cells
T6 sequence (P25103 whole entry): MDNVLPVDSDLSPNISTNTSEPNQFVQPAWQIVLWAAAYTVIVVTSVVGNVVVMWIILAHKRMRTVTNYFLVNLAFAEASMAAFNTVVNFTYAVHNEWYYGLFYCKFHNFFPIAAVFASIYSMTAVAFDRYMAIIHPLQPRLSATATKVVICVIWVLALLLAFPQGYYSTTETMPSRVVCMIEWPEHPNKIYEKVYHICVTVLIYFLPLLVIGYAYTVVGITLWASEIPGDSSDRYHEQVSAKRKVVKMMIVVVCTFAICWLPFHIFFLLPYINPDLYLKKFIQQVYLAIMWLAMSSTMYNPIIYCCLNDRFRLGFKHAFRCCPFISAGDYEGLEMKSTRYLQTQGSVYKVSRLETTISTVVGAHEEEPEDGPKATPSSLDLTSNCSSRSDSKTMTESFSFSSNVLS

[8] = Table 39, read-out: Affinity rNK1 (Ki; nM)
[9] = electrically stimulated isolated tissue, read-out: MVD (δ), IC50
[10] = Table 21, HN9.10 cell, read-out: EC50 (nM), hDOR
[11] = Table 39, read-out: GTP binding hDOR EC50
[12] = Table 39, read-out: GTP binding hDOR Emax
[13] = Table 21, net total bound/basal binding × 100, read-out: Emax (%), rMOR
[14] = Table 39, read-out: GTP binding rMOR EC50
[15] = Table 39, read-out: GTP binding rMOR Emax
[16] = net total bound/basal binding × 100, read-out: Emax, rMOR, [35S]GTP-γ-S binding
[17] = Table 21, net total bound/basal binding × 100, read-out: Emax (%), hDOR

Row | Compound | IC50 (rat NK1 (rNK1) receptor; Table 20) [nM] | Ki (rat NK1 (rNK1) receptor; [8]) [nM] | IC50 (δ opioid receptors (MVD); [9]) [nM] | half-life at 50 μg/mL [1] [h] | IC50 [2] [nM] | Ki ([2]; read-out: Ki, rMOR, [3H]DAMGO) [nM] | EC50 [3, 10] [nM] | EC50 [3, 11] [nM] | Emax [3, 12] [%] | IC50 [4] [nM] | Emax [5, 13] [%] | EC50 [5, 14] [nM] | Emax [5, 15] [%] | Emax [5, 16] [%] | Emax [3, 17] [%] | Opioid agonist GPI (μ), % inh. (μ opioid receptors (GPI)) [% inh. at 1 uM^d] | GPI/LMMP opioid(mu) Antagonist (μ opioid receptors (GPI); Table 39) | GPI/LMMP opioid(mu) agonist, % at 1 uM (μ opioid receptors (GPI); Table 39) [% at] | agonist effect in the functional assay using GPI (μ opioid receptors (GPI)) | other results
1 | CC(C)C[C@H](NC(=O)[C@@H]1CCCN1C(=O)[C@H]1CSSC[C@@H](NC(=O)[C@@H](N)Cc2ccc(O)cc2)C(=O)NCC(=O)N[C@@H](Cc2ccccc2)C(=O)N1)C(=O)N[C@@H](Cc1c[nH]c2ccccc12)C(=O)NCc1cc(C(F)(F)F)cc(C(F)(F)F)c1 [TY037, [D-Cys^2, D-Cys^5]TY027] | 126 | 45.5 | 8.3 | 3.7 | 126 | 52 | 14 | 98.2 | 26 | 15.8 | 12 | 52.9 | 8 | < 20 | – | – | – | – | – | Ki ([4]; Table 39, read-out: Affinity hDOR (Ki; nM)): 7.8 nM; Ki ([4]; read-out: Ki (nM), hDOR, [3H]DPDPE, Table 20, HN9.10 cell membranes): 7.8 nM; IC50 (μ opioid receptors (GPI); Table 39, read-out: GPI/LMMP opioid(mu) agonist (IC50; nM)): 284 nM; IC50 (μ opioid receptors (GPI); electrically stimulated isolated tissue, read-out: GPI (μ), IC50): 280 nM; Substance P antagonist, GPI, Ke ([6]; in the presence of 1 μM naloxone): 4.7 nM
2 | CCCC[C@@H]1NC(=O)[C@H](Cc2ccccc2)NC(=O)CNC(=O)[C@H](NC(=O)[C@@H](N)Cc2ccc(O)cc2)CSSC[C@H](C(=O)N[C@@H](Cc2c[nH]c3ccccc23)C(=O)NCc2cc(C(F)(F)F)cc(C(F)(F)F)c2)NC(=O)[C@@H]2CCCN2C1=O [TY038, [D-Cys^2, D-Cys^7]TY027] (HELM PEPTIDE1{Y.[dC].G.F.[Nle].P.[dC].W.[FC(F)(F)c1cc(CN[*:1])cc(C(F)(F)F)c1]}$PEPTIDE1,PEPTIDE1,2:R3-7:R3$$$V2.0; N-terminus assumed) | 20 | 7.11 | 19 | > 6 | 1.58 | 160 | – | 14 | 87 | 126 | – | – | – | – | 87 | 3 | none | 3 | nearly no agonist effect | Ki(hNK1)/Ki(rNK1) (rat NK1 (rNK1) receptor; Table 20, species ratio): 28; Ki (rat NK1 (rNK1) receptor; read-out: Ki, rNK1): 7.1 nM; IC50 (δ opioid receptors (MVD); Table 39, read-out: MVD opioid(delta) agonist (IC50; nM)): 18.9 nM; Ki [2]: 156 nM; Ki(μ)/Ki(δ) ([2]; Table 20, ratio rMOR Ki / hDOR Ki): 2.9; Emax ([3]; net total bound/basal binding × 100, read-out: Emax, hDOR, [35S]GTP-γ-S binding): 87%; Ki [4]: 55.5 nM; EC50 ([5]; LogEC50, rMOR): 20 nM; Emax ([5]; read-out: Emax (%), rMOR): 12%; Emax ([5]; read-out: Emax, rMOR, [35S]GTP-γ-S binding): < 20%; EC50 ([5]; read-out: GTP binding rMOR EC50): 21.7 nM; Emax ([5]; read-out: GTP binding rMOR Emax): 11%; IC50 [7]: 0.501 nM; Ki [7]: 0.24 nM; Ki ([7]; read-out: Ki, hNK1): 0.25 nM; Kb ([6]; Substance P antagonist, GPI, Ke (nM), Table 22, in the presence of 1 μM naloxone): 12 ± 1.4 nM; GPI/LMMP SP Agonist (IC50; nM) ([6]; Table 39, at 100 nM): none
3 | CC(C)C[C@H](NC(=O)[C@@H]1CCCN1C(=O)[C@@H]1CSSC[C@@H](NC(=O)[C@@H](N)Cc2ccc(O)cc2)C(=O)NCC(=O)N[C@@H](Cc2ccccc2)C(=O)N1)C(=O)N[C@@H](Cc1c[nH]c2ccccc12)C(=O)NCc1cc(C(F)(F)F)cc(C(F)(F)F)c1 [TY039] | 1580 | – | 73 | > 6 | 398 | 200 | 0.9 | 50.9 | 37 | 25.1 | 17 | 118 | 20 | < 20 | 37 | 10 | none | 10.1 | nearly no agonist effect | EC50 ([5]; Table 21, HN9.10 cell, read-out: EC50 (nM), rMOR): 118 nM; EC50 ([5]; Table 21, logarithm of EC50 (negative), HN9.10 cell, read-out: LogEC50, rMOR (converted)): 126 nM
